Experiments:
[1] = test system: bFGF-stimulated corneal angiogenesis; test: Corneal angiogenesis assay; type: in vivo, mice; conditions: delivered by intraperitoneal osmotic pump
Source text: The effect of endostatin on bFGF-stimulated corneal angiogenesis was examined in wild type and E-selectin deficient mice.

[2] = test system: VEGF-stimulated endothelial vessel formation by aortic endothelium; test: Aortic ring explant assay of endothelial vessel morphogenesis; type: cell-based; conditions: aortae of wild type mice
Source text: The results described above were extended using an aortic ring explant assay of endothelial vessel morphogenesis. […] The more rapid and extensive growth in E-selectin deficient aortae is therefore consistent with the hypothesis that E-selectin is required for endostatin activity.

[3] = test system: tumor growth; conditions: mouse model; cited from earlier work
[4] = test system: isolated, cultured human endothelial cells; test: Endostatin responsiveness of isolated, cultured human endothelial cells; type: cell-based

## endostatin
[1]; E-selectin deficient mice
  effect on FGF-stimulated corneal angiogenesis: not in the E-selectin deficient mice
[1]; wild type mice
  effect on FGF-stimulated corneal angiogenesis: inhibited FGF-stimulated angiogenesis
[2]
  effect on vessel formation: vessel formation was inhibited
[3]
  effect on tumor growth: dramatic reduction in tumor growth

## tumor necrosis factor-alpha
[4]; isolated cultured human endothelial cells, even in the presence of E-selectin
  effect on endostatin responsiveness: appears to block and/or prevent endostatin responsiveness

B1: E-selectin (protein, UniProt P16581 22-610, looked up)
E-selectin: WSYNTSTEAMTYDEASAYCQQRYTHLVAIQNKEEIEYLNSILSYSPSYYWIGIRKVNNVWVWVGTQKPLTEEAKNWAPGEPNNRQKDEDCVEIYIKREKDVGMWNDERCSKKKLALCYTAACTNTSCSGHGECVETINNYTCKCDPGFSGLKCEQIVNCTALESPEHGSLVCSHPLGNFSYNSSCSISCDRGYLPSSMETMQCMSSGEWSAPIPACNVVECDAVTNPANGFVECFQNPGSFPWNTTCTFDCEEGFELMGAQSLQCTSSGNWDNEKPTCKAVTCRAVRQPQNGSVRCSHSPAGEFTFKSSCNFTCEEGFMLQGPAQVECTTQGQWTQQIPVCEAFQCTALSNPERGYMNCLPSASGSFRYGSSCEFSCEQGFVLKGSKRLQCGPTGEWDNEKPTCEAVRCDAVHQPPKGLVRCAHSPIGEFTYKSSCAFSCEEGFELHGSTQLECTSQGQWTEEVPSCQVVKCSSLAVPGKINMSCSGEPVFGTVCKFACPEGWTLNGSAARTCGATGHWSGLLPTCEAPTESNIPLVAGLSAAGLSLLTLAPFLLWLRKCLRKAKKFVPASSCQSLESDGSYQKPSYIL
notes: a cell surface glycoprotein expressed by the endothelium
[4]; isolated, cultured human endothelial cells
  effect on endostatin responsiveness: can be sufficient to confer endostatin responsiveness

From US20020187123A1, “Therapeutic compositions and methods for the inhibition of angiogenesis” (priority 2001, published 2002)
